Measurements taken from US10501443B2, “Pyridone compound as c-met inhibitor” (FUJIAN COSUNTER PHARMACEUTICAL CO., LTD., priority 2016, dated 2019).
pIC50: −log10 of the molar value.

Assays:
[1] = tested on: human liver cancer MHCC97H cell xenograft; assay: Pharmacodynamics assay of MHCC97H liver cancer cell subcutaneous xenograft tumor model; type: in vivo, BALB/c nude mice; settings: for Tumor volume (24th day): 24th day after administration, average ± SEM; for T/C / TGI: based on 24th day tumor volume
Description: Assay 3: Pharmacodynamics Assay of MHCC97H Liver Cancer Cell Subcutaneous Xanograft Tumor Model
MHCC97H cells were cultured in a single layer in-vitro. The culturing condition was RPMI1640 medium supplemented with 10% heat-inactivated fetal bovine serum, 1% penicillin-streptomycin double antibody under 37° C., 5% carbon dioxide. Digestion and passage treatment with trypsin-EDTA was done twice a week. When the cells are in the exponential growing phase, the cells were collected, counted and inoculated.
BALB/c nude mice, male. 6-8 weeks old, weighting 18-22 g.
0.2 mL of a cell suspension containing 5×10^6 MHCC97H was subcutaneously inoculated into the right back of each mouse. Drugs were administrated by group after the average tumor volume reached approximately 172 mm^3.
Aim of the assay: investigation of whether the tumor growth was inhibited, delayed or cured. The diameters of the tumor was measured twice a week using vernier calipers. The formula for calculating the tumor volume is V=0.5a×b2, and a and b represent the long and short diameters of the tumor respectively. The antitumor effect (TGI) of the compounds was evaluated by T-C (days) and T/C (%).

[2] = t1/2 of liver particle metabolism, human; type: in vitro ADME; settings: liver particle (liver microsomes)
[3] = t1/2 of liver particle metabolism, rat; type: in vitro ADME; settings: liver particle (liver microsomes)
[4] = t1/2 of liver particle metabolism, mice; type: in vitro ADME; settings: mouse, liver particle (liver microsomes)
c-MET enzyme = molecular target: T1, c-MET enzyme (Homo sapiens, UniProt P08581); assay: Binding activity of c-MET enzyme assay (LanthaScreen Eu Kinase Binding Assay); settings: cMET 5 nM, Tracer 236 30 nM, 60 mins at 4° C.
T1 construct: His (6xHis); purchased invitrogen PV3143
T1 sequence (P08581 956-1390 limits assumed): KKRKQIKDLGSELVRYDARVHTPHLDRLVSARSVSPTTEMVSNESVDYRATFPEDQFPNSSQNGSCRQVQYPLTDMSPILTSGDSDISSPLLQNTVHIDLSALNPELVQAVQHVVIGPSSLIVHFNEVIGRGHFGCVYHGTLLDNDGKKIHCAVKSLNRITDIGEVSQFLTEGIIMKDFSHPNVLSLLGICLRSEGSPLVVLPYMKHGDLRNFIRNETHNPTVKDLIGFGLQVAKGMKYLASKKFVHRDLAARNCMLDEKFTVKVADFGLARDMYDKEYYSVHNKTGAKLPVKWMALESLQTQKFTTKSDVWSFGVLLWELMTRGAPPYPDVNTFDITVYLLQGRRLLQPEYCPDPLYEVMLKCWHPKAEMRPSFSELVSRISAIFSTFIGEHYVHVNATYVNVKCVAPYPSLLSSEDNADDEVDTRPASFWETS
Description: Assay 1: Binding Activity of c-MET Enzyme Assay
(§1) Reagents and Consumables:
Eu-Anti-His AB (MAb Anti 6HIS-K)
The binding of tracer agent and antibody and kinase leaded to high FRET standard, while using kinase inhibitor instead of tracer agent would lead to loss of FRET.
1) The antibody Eu-Anti-His AB, enzyme cMET, tracer agent Tracer236 were diluted.
Double duplicate wells were set and each of them 75 nL.

MHCC97H cells = assay: Inhibitory effect assay on proliferation (CellTiter-Glo); type: cell-based; settings: Homo sapiens, 72 h, MHCC97-H, 3 days incubation, read-out: MHCC97H cell IC50
Excerpt: Assay 2: Inhibitory Effect Assay on Proliferation
as §1
1) Cell culture: DMEM cell medium, fetal bovine serum, DPBS
3) Detection reagent: live cell detection kit CellTiter-Glo
4) Other major consumables and reagents: compound dilution plate, intermediate plate, test plate, DMSO
The amount of ATP directly reflects the number of cells and the state of the cells, thus the number of living cells could be directly detected by quantitatively measuring ATP. The live cell assay kit contains luciferase and its substrate. With the presence of ATP, a stable optical signal would be emitted by the luciferase catalyzed substrate. Thus the amount of ATP in the cell could be determined by detecting the intensity of the signal. The light signal was proportional to the amount of ATP in the cell, while the ATP was positively correlated with the number of living cells, so that the proliferation in the cell could be detected. The assay plate used was analyzed by Envision from PE Corporation.
1. Preparation of the Cell Plates
MHCC97-H cells were seeded separately into 384-well plates, each of the well contains 500 cells. The cell plates were placed and incubated in a carbon dioxide incubator overnight.
2. Preparation of the compound.
Echo was used for 4-time dilution and 9 concentration was prepared, ready for double duplicate wells assay.
3. Compound Treatment of Cells
The compounds were transferred to cell plates at a starting concentration of 10 μM. The cell plates were incubated in a carbon dioxide incubator for 3 days.
The […] reagent was added into the cell plates and the plate was incubated at room temperature for 10 mins to stabilize the luminescence signal. PerkinElmer Envision multi-label analyzer was used for readings.

[5] = in words, prior art section; cited from earlier work
MHCC97H cell = settings: read-out: MHCC97H cell IC50; prior art section; cited from earlier work

pIC50 (c-MET enzyme)	SMILES	pIC50 (MHCC97H cells)	other results
8.42	Cc1cc(-c2cc(F)c(=O)n([C@H](C)c3cccc(-c4ncc(OCC5CCN(C)CC5)cn4)c3)c2)on1 (single isomer, unassigned) [Embodiment 8-2]		Tumor volume (24th day) [1]: 161 ± 6 mm^3; T/C [1]: 7.8%; TGI [1]: 100.6%
8.03	Cc1cc(-c2cc(F)c(=O)n(C(C)c3cccc(-c4ncc(OCC5CCN(C)CC5)cn4)c3)c2)sn1 (centres unmarked) [Embodiment 2-2]	7.86	

The remaining lines, values behind:

SMILES	pIC50 (c-MET enzyme)	pIC50 (MHCC97H cells)	other results
CC(c1cccc(-c2ncc(OCC3CCN(C)CC3)cn2)c1)n1cc(-c2cc(C#N)ccn2)cc(F)c1=O (single isomer, unassigned) [Embodiment 1-2]			Tumor volume (24th day) [1]: 153 ± 12 mm^3; T/C [1]: 7.4%; TGI [1]: 101.0%; half-life [2]: 62.1 min; half-life [3]: 36.5 min; half-life [4]: 49.1 min
Cc1cc(-c2ccc(=O)n([C@H](C)c3cccc(-c4ncc(OCC5CCN(C)CC5)cn4)c3)c2)sn1 [Embodiment 3-2]		7.72	
CN1CCC(COc2cnc(-c3cccc(Cn4cc(-c5cc(C#N)ccc5F)ccc4=O)c3)nc2)CC1 [Embodiment 4]	8.21	7.14	
Cc1cc(-c2cc(F)c(=O)n(Cc3cccc(-c4ncc(OCC5CCN(C)CC5)cn4)c3)c2)sn1 [Embodiment 5]	8.54	7.23	
CN1CCC(COc2cnc(-c3cccc(Cn4cc(-c5cc(C#N)ccn5)ccc4=O)c3)nc2)CC1 [Embodiment 6]	8.36	7.48	
CN1CCC(COc2cnc(-c3cccc(Cn4cc(-c5cc(C#N)ccn5)cc(F)c4=O)c3)nc2)CC1 [Embodiment 7]	7.81	7.65	
CN1CCC(COc2cnc(-c3cccc(Cn4cc(-c5cnn(C)c5)ccc4=O)c3)nc2)CC1 [Embodiment 10]	7.16	6.78	
Cc1cc(-c2ccc(=O)n(Cc3cccc(-c4ncc(OCC5CCN(C)CC5)cn4)c3)c2)sn1 [Embodiment 11]	8.30	7.03	
Cc1cc(-c2ccc(=O)n(Cc3cccc(-c4ncc(OCC5CCN(C)CC5)cn4)c3)c2)on1 [Embodiment 12]		7.29	
CN1CCC(COc2cnc(-c3cccc(Cn4nc(-c5cccc(C#N)c5)ccc4=O)c3)nc2)CC1 [Tepotinib, reference compound]			Tumor volume (24th day) [1]: 255 ± 5 mm^3; T/C [1]: 12.4%; TGI [1]: 95.6%; clearance rate in vivo [5]: high clearance rate in vivo; metabolic stability [5]: low metabolic stability; pIC50 (MHCC97H cell): 8.21
